This note sets out measurements from patent publication US11427526B2, “Method of preparing hydroxytyrosol cinnamic acid ester with antioxidant and antibacterial activities” (XI'AN KANGYUANSHENG BIOMEDICAL TECHNOLOGY CO., LTD., priority 2020, dated 2022).

Converted amounts (≈) assume the structure as drawn.

Assay [1] has as its system carbapenem-resistant Acinetobacter baumannii CR-AB 18-560. The assay is described as follows: MIC by microbroth dilution, CR-AB 18-560. It is filed as cell-based. The following applies: strain CR-AB 18-560. The method, then: (§1) The minimal inhibitory concentrations (MIC) of the compounds were determined by microbroth dilution method with gentamicin, cefazolin sodium and ceftriaxone sodium as positive control.
(§2) The experimental strains included methicillin-resistant Gram-positive bacteria: methicillin-resistant Straphylococcus aureus MRSA 18-222, 18-575; multiple drug-resistant Gram-negative bacteria: vancomycin-resistant Enterococci VRE 18-80, 18-94, multidrug-resistant Pseudomonas aeruginosa MDR-PA 18-1774, 18-202, carbapenem-resistant Acinetobacter baumannii CR-AB 18-183, 18-560. All the experimental strains were donated by Huashan Hospital affiliated to Fudan University (Institute of antibiotics, Fudan University) and used after routine identification.
(§3) Preparation of MHB medium: 20.0 g MHB medium was added to 1 L distilled water, boiled until completely dissolved, packed in conical bottles and sterilized at 121° C. for 15 min.
(§4) The experimental strain was cultured to the logarithmic growth phase: under aseptic condition, the experimental strain was inoculated into 100 mL MHB medium and incubated in a constant temperature and humidity incubator at 37° C. for 20-22 hours.
(§5) Preparation of storage solution: weighing the sample to be tested, dissolving it with 1% DMSO solution, preparing a storage solution with a concentration of 2560 μg/mL, weighing a positive reference substance, dissolving it with aseptic distilled water, and configuring a storage solution with a concentration of 2560 μg/mL.
(§6) Preparation of bacterial suspension: under aseptic condition, the experimental strains cultured to logarithmic growth phase were adjusted to 0.5 MCF turbidity standard with MHB medium and diluted according to 1:10, and the bacterial suspension with concentration of 10^6 CFU/mL was prepared for standby.
(§7) Dilution of storage solution and inoculation of experimental strain: under aseptic condition, the storage solution was diluted to 256 μg/mL solution. Taking a sterile 96-well plate, adding 200 μL MHB medium to the 12th well, and adding 100 μL MHB medium to each well. Adding 100 μL of positive control solution to the first well, mixing well, and taking 100 μL and discard. Adding 100 μL of the compound sample solution to the second well, mixing well, and then pipetting 100 μL to the third well. After mixing, pipetting 100 μL to the fourth well, and diluting to the 11th well in the same way. Finally, 100 μL was pipetted from the 11th well and discarded. The 12th hole was the growth control without drugs. The concentration of the positive reference substance was 128 μg/mL, the concentrations of the sample solution were 128, 64, […] respectively. Then, 100 μL of the prepared bacterial suspension was added to each well, so that the final concentration of the bacterial liquid in each well was 5×10^5 CFU/mL.
(§8) Incubation: Covering the 96-well plate inoculated with the experimental strains, and incubating in a constant temperature and humidity box at 37° C. for 20-22 hours.
(In general: Broth dilution looks for growth in wells or tubes with falling amounts of substance.)

Assay [2] deals with vancomycin-resistant Enterococci VRE 18-80. In words: MIC by microbroth dilution, VRE 18-80. In kind it is cell-based. The following applies: strain VRE 18-80. The method, then: as §1, §2, §3, §4, §5, §6, §7, §8
The test system of another assay is drug-resistant bacteria. The assay is described as follows: Antibacterial activity test, summary over all experimental strains. In kind it is cell-based. The following applies: text summary of FIGS. 2-3 and Table 4. The method, then:
as §1, §2, §3
The experimental strain was cultured to the logarithmic growth phase: under aseptic condition, the experimental strain was inoculated into 100 mL MHB medium and incubated in a constant temperature and humidity incubator at 37° C. for 20-22 hours. […]

Assay [3] concerns methicillin-resistant Straphylococcus aureus MRSA 18-222. In words: MIC by microbroth dilution, MRSA 18-222. In kind it is cell-based. The settings on record: for Minimum bacteriostatic concentration: strain MRSA 18-222. The method, then:
as §1, §2, §3, §4, §5, §6, §7, §8

For assay [4], the system named is methicillin-resistant Straphylococcus aureus MRSA 18-575. In words: MIC by microbroth dilution, MRSA 18-575. It is filed as cell-based. The settings on record: strain MRSA 18-575. On the procedure:
as §1, §2, §3, §4, §5, §6, §7, §8

Assay [5] concerns multidrug-resistant Pseudomonas aeruginosa MDR-PA 18-174. In words: MIC by microbroth dilution, MDR-PA 18-174. It is filed as cell-based. The settings on record: for Minimum bacteriostatic concentration: strain MDR-PA 18-174. The method, then:
as §1, §2, §3, §4, §5, §6, §7, §8

The subject of assay [6] is multidrug-resistant Pseudomonas aeruginosa MDR-PA 18-202. The assay is described as follows: MIC by microbroth dilution, MDR-PA 18-202. It is filed as cell-based. The following applies: strain MDR-PA 18-202. The method, then:
as §1, §2, §3, §4, §5, §6, §7, §8

The test system of assay [7] is carbapenem-resistant Acinetobacter baumannii CR-AB 18-183. The assay is described as follows: MIC by microbroth dilution, CR-AB 18-183. The following applies: strain CR-AB 18-183. It is filed as cell-based. On the procedure:
as §1, §2, §3, §4, §5, §6, §7, §8

Assay [8] deals with vancomycin-resistant Enterococci VRE 18-94. The assay is described as follows: MIC by microbroth dilution, VRE 18-94. It is filed as cell-based. The following applies: strain VRE 18-94. The method, then:
as §1, §2, §3, §4, §5, §6, §7, §8

Assay [9] can be described thus: DPPH radical scavenging activity assay. The settings on record: for DPPH clearance rate: n = 3. The method, then:
The antioxidant activity of the hydroxytyrosol cinnamic acid ester was measured by a DPPH radical scavenging activity assay. 2,2-Diphenyl-1-picryl hydrazyl (DPPH) is an organic compound composed of a stable organic radical. In the DPPH molecule, due to the presence of multiple electron-withdrawing —NO2 and large π bonds of the benzene ring, nitrogen free radical is stabilized. Its methanol solution is purple and has a maximum absorption peak at 517 nm. After the addition of an antioxidant, DPPH captures an electron to be paired with the free electron, and the purple fades and turns into a yellow substance. The absorption at 517 nm disappears, and the degree of fading is quantitatively related to the number of electrons it captures. Based on this principle, a spectrophotometer is used to detect the change of the absorbance of the DPPH radical and the sample solution, and the ability of the sample to provide hydrogen atoms and scavenge free radicals can be measured. measuring exact amount of 2,2-diphenyl-1-picryl hydrazyl (DPPH) and dissolving in toluene to prepare a 0.2 mmoL/L DPPH solution, stored at 0° C. in dark. Vc (positive control), hydroxytyrosol cinnamic acid ester (sample), hydroxytyrosol (control) and cinnamic acid (control). The sample solution was subjected to gradient dilution with toluene, and three sets of controls were separately dissolved in a test tube with a certain amount of toluene to prepare the same concentration gradient as the sample. Sample liquid absorbance measurement: Take 2 mL of sample solution (Table 1 Vc, B, C), add 2 mL of DPPH solution with concentration of 2×10^−4 moL/L, mix and react in the dark at room temperature for 30 min, adjust to zero with toluene, and measure at 517 nm. The absorbance Ai was simultaneously measured for the absorbance Aj of 2 mL of toluene mixed with 2 mL of the sample solution and the absorbance Ao of 2 mL of DPPH solution mixed with 2 mL of toluene (The experimental results are shown in Table 2). Clearance calculation: Clearance Rate (%)=[1−(Ai−Aj)/Ao]*100%
For orientation: Loss of DPPH colour is used to gauge radical scavenging.

In the case of `OCCc1ccc(O)c(O)c1` [Hydroxytyrosol], the Minimum bacteriostatic concentration in assay [1], in assay [2], in [3], in [4], in assay [5] and in assay [6] was more than 128 µg/mL in each case. Also, the Minimum bacteriostatic concentration in assay [7] and in [8] was more than 128 µg/mL in each case. Also, the “inhibitory effect on drug-resistant bacteria” value in the assay on drug-resistant bacteria is on record as “no inhibitory effect”.
The MIC is the smallest concentration in the dilution series that meets the test's criterion for growth inhibition. A lower MIC goes with inhibition by little substance. Regarding `O=C(/C=C\c1ccccc1)OCCc1ccc(O)c(O)c1` [Hydroxytyrosol cinnamic acid ester, (Z)-3,4-Dihydroxyphenethyl 3-Phenylacrylate], the Minimum bacteriostatic concentration in [1] was more than 128 µg/mL; in assay [2] it was more than 128 µg/mL; in [3], 32 µg/mL; in assay [4], more than 128 µg/mL; in assay [5], 64 µg/mL; in [6], more than 128 µg/mL. Moreover, the Minimum bacteriostatic concentration in assay [7] and in assay [8] was more than 128 µg/mL each time. In assay [9], the antioxidant activity result was “excellent antioxidant activity”. For the same compound, the DPPH clearance rate was found to be 0.56% in [9] (1.76 ppm); 16.52% in assay [9] (8.80 ppm); 31.75% in [9] (21.12 ppm); 43.52% in assay [9] (42.24 ppm); 55.11% in assay [9] (79.20 ppm); 68.53% in [9] (112.64 ppm). Also, the DPPH clearance rate in assay [9] (281.60 ppm) was found to be 76.22%; in [9] (492.80 ppm), 80.95%; in assay [9] (792.00 ppm), 84.32%; in assay [9] (915.20 ppm) it was 85.03%. For the same compound, the minimum inhibitory concentration (MIC) stood at 32 µg/mL (≈ 113 µM) in assay [3] (Staphylococcus aureus, multi-drug resistant Straphylococcus aureus MRSA (text summary, strain number not given)) and 64 µg/mL (≈ 225 µM) in assay [5] (multi-drug resistant Pseudomonas aeruginosa MDR-PA (text summary, strain number not given)).
As to Gentamicin, the Minimum bacteriostatic concentration in [1] is more than 128 µg/mL; in [2], 0.0625 µg/mL; in assay [3], 128 µg/mL; in assay [4], 2 µg/mL; in assay [5] it was 0.0625 µg/mL; in assay [6] it was 0.0625 µg/mL. Moreover, the Minimum bacteriostatic concentration in [7] and in [8] was more than 128 µg/mL in each case.
On to `CO/N=C(\C(=O)N[C@@H]1C(=O)N2C(C(=O)O)=C(CSc3nc(=O)c(=O)[nH]n3C)CS[C@H]12)c1csc(N)n1` [Ceftriaxone sodium], for which the Minimum bacteriostatic concentration in [1] is more than 128 µg/mL; in assay [2], 8 µg/mL; in assay [3], more than 128 µg/mL; in [4], more than 128 µg/mL; in assay [5], 128 µg/mL; in assay [6], 16 µg/mL. The Minimum bacteriostatic concentration in assay [7] and in [8] was more than 128 µg/mL each time.
As to `O=C1O[C@H]([C@@H](O)CO)C(O)=C1O` [Vc], the DPPH clearance rate came out at 23.16% in assay [9] (1.76 ppm); 33.47% in assay [9] (8.80 ppm); 79.63% in [9] (21.12 ppm); 89.55% in assay [9] (42.24 ppm); 97.42% in [9] (79.20 ppm); 97.53% in assay [9] (112.64 ppm). Moreover, the DPPH clearance rate in assay [9] (281.60 ppm) is given as 98.29%; in assay [9] (492.80 ppm) it was 99.06%; in assay [9] (792.00 ppm), 99.10%; in [9] (915.20 ppm), 99.28%.
As for `Cc1nnc(SCC2=C(C(=O)O)N3C(=O)[C@@H](NC(=O)Cn4cnnn4)[C@H]3SC2)s1` [Cefazolin sodium], the Minimum bacteriostatic concentration in assay [1] was more than 128 µg/mL; in assay [2], 32 µg/mL; in assay [3], more than 128 µg/mL; in [4] it was more than 128 µg/mL; in assay [5], 8 µg/mL; in assay [6], 128 µg/mL. For the same compound, the Minimum bacteriostatic concentration in assay [7] and in assay [8] was more than 128 µg/mL in each case.
As for `O=C(O)C=Cc1ccccc1` [Cinnamic acid], the Minimum bacteriostatic concentration in assay [1], in [2], in assay [3], in assay [4], in [5] and in assay [6] was more than 128 µg/mL each time. Also, the Minimum bacteriostatic concentration in [7] and in assay [8] was more than 128 µg/mL throughout. The DPPH clearance rate was found to be 6.45% in assay [9] (1.76 ppm); 8.20% in assay [9] (8.80 ppm); 14.52% in assay [9] (21.12 ppm); 20.33% in assay [9] (42.24 ppm); 31.75% in assay [9] (79.20 ppm); 38.62% in assay [9] (112.64 ppm). Further, the DPPH clearance rate in assay [9] (281.60 ppm) is given as 54.12%; in assay [9] (492.80 ppm), 59.60%; in assay [9] (792.00 ppm) it was 70.53%; in assay [9] (915.20 ppm), 71.89%. For the same compound, in the assay on drug-resistant bacteria, the “inhibitory effect on drug-resistant bacteria” value is “no inhibitory effect”.
